Experimental data reported in the supplement of paper PMC10307832.

Tests used:
Assay in all cases: relative viability (nuclei count vs DMSO), 5 days (fraction); higher = more cells survive
Daporinad + Crizotinib = compound: O=C(/C=C/c1cccnc1)NCCCCC1CCN(C(=O)c2ccccc2)CC1 [Daporinad] + C[C@@H](Oc1cc(-c2cnn(C3CCNCC3)c2)cnc1N)c1c(Cl)ccc(F)c1Cl [Crizotinib] (partner 1 µM)
In short: (§1)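 After 5 days of treatment, lung cancer cells in 1536-well plates were fixed and stained in a single step (final 0.05% Triton X-100, 1% formaldehyde, 1 ug/ml Hoechst) and their nuclei counted on 4× images. Treatment had been applied by pin tool the day after seeding as one drug alone or as a fixed anchor-drug dose with five library-drug doses (not always all listed) in √10 steps. Relative viability is the nuclei count of treated wells divided by that of vehicle wells, and values are medians of duplicate plates.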

R406 + Dasatinib = compound: COc1cc(Nc2ncc(F)c(Nc3ccc4c(n3)NC(=O)C(C)(C)O4)n2)cc(OC)c1OC [R406] + Cc1nc(Nc2ncc(C(=O)Nc3c(C)cccc3Cl)s2)cc(N2CCN(CCO)CC2)n1 [Dasatinib] (partner 0.075 µM)
In short: as §1

Daporinad + Olaparib = compound: O=C(/C=C/c1cccnc1)NCCCCC1CCN(C(=O)c2ccccc2)CC1 [Daporinad] + O=C(c1cc(Cc2n[nH]c(=O)c3ccccc23)ccc1F)N1CCN(C(=O)C2CC2)CC1 [Olaparib] (partner 8 µM)
In short: as §1

R406 + Lapatinib = compound: COc1cc(Nc2ncc(F)c(Nc3ccc4c(n3)NC(=O)C(C)(C)O4)n2)cc(OC)c1OC [R406] + CS(=O)(=O)CCNCc1ccc(-c2ccc3ncnc(Nc4ccc(OCc5cccc(F)c5)c(Cl)c4)c3c2)o1 [Lapatinib] (partner 2 µM)
In short: as §1

Cell Line | relative viability (Daporinad + Crizotinib; first compound 0.0005 µM) | relative viability (Daporinad + Crizotinib; first compound 0.001581 µM) | relative viability (Daporinad + Crizotinib; first compound 0.005 µM) | relative viability (Daporinad + Crizotinib; first compound 0.01581 µM) | relative viability (R406 + Dasatinib; first compound 0.08 µM) | relative viability (R406 + Dasatinib; first compound 0.253 µM) | relative viability (R406 + Dasatinib; first compound 0.8 µM) | relative viability (R406 + Dasatinib; first compound 2.53 µM) | relative viability (R406 + Dasatinib; first compound 8 µM) | relative viability (Daporinad + Olaparib; first compound 0.0005 µM) | relative viability (Daporinad + Olaparib; first compound 0.001581 µM) | relative viability (Daporinad + Olaparib; first compound 0.005 µM) | relative viability (Daporinad + Olaparib; first compound 0.01581 µM) | relative viability (R406 + Lapatinib; first compound 0.08 µM) | relative viability (R406 + Lapatinib; first compound 0.253 µM) | relative viability (R406 + Lapatinib; first compound 0.8 µM) | relative viability (R406 + Lapatinib; first compound 2.53 µM) | relative viability (R406 + Lapatinib; first compound 8 µM)
NCI-H650 | 0.736 | 0.749 | 0.75 | 0.798 | 0.463 | 0.513 | 0.483 | 0.426 | 0.425 | 0.358 | 0.462 | 0.346 | 0.285 | 0.877 | 1.04 | 1.02 | 0.243 | 0.52
HCC-78 | 0.333 | 0.362 | 0.331 | 0.428 | 0.362 | 0.335 | 0.4 | 0.307 | 0.237 | 0.531 | 0.786 | 0.649 | 0.559 | 0.673 | 0.919 | 0.888 | 0.649 | 0.354
NCI-H1755 | 0.83 | 0.859 | 0.919 | 0.843 | 0.401 | 0.508 | 0.407 | 0.264 | 0.135 | 0.838 | 0.891 | 0.84 | 0.843 | 1.03 | 1.07 | 1.04 | 0.678 | 0.329
NCI-H3122 | 0.237 | 0.29 | 0.261 | 0.238 | 0.743 | 0.844 | 0.832 | – | 0.491 | 0.564 | 0.565 | 0.501 | 0.421 | 1.01 | 1.06 | 0.981 | 0.969 | 0.934
NCI-H358 | 0.693 | 0.709 | 0.684 | 0.562 | 0.165 | 0.171 | 0.113 | 0.143 | 0.132 | 0.556 | 0.507 | 0.351 | 0.293 | 0.407 | 0.441 | 0.47 | 0.375 | 0.2
PC-3 [JPC-3] | 1 | 1.02 | 1.11 | 1.01 | 0.951 | 1.09 | 1.27 | 0.915 | 0.737 | 1.18 | 1.08 | 1 | 1.09 | 0.457 | 0.501 | 0.503 | 0.406 | 0.418
SK-MES-1 | 0.959 | 1.01 | 1.12 | 0.9 | 0.397 | 0.371 | 0.363 | 0.137 | 0.136 | 0.603 | 0.636 | 0.423 | 0.323 | 0.416 | 0.477 | 0.5 | 0.449 | 0.295
NCI-H2347 | 0.841 | 0.892 | 0.826 | 0.775 | 0.322 | 0.339 | 0.324 | 0.319 | 0.299 | 0.543 | 0.604 | 0.571 | 0.416 | 1.01 | 0.968 | 0.958 | 0.905 | 0.801
NCI-H2228 | 0.505 | 0.548 | 0.625 | 0.636 | 0.442 | 0.695 | 0.646 | 0.195 | 0.135 | 0.459 | 0.715 | 0.708 | 0.584 | 1.13 | 1.27 | 1.5 | 0.13 | 0.131
